The source of these data is PubChem BioAssay (NCI).

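Grown in 96-well plates, cells were treated for 48 hours with each compound at five concentrations. Insufficient inhibition: endpoint recorded as highest concentration tested. The concentration for 50% growth inhibition is given as GI50. TGI: concentration producing complete growth inhibition.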

Some test systems named below: A498 renal; EKVX NSCLC; IGROV1 ovarian; M14 melanoma; MOLT-4 leukemia; NCI-H460 lung; SNB-75 CNS; U251 CNS; UACC-257 melanoma; SK-MEL-2 melanoma.
Holding throughout (assay): NCI-60 cell line screen, 48 h

Consider `c1ccc(N2N=NC3C4CC(C5c6ccccc6C45)C32)cc1` (centres undefined), for which the TGI with A498 renal was above 100 µM; in the experiment with EKVX NSCLC, above 100 µM; in the experiment with IGROV1 ovarian, above 100 µM; in the experiment with M14 melanoma, above 100 µM; with MOLT-4 leukemia, 73.4 µM; in the experiment with NCI-H460 lung, above 100 µM. Also, the TGI with SNB-75 CNS was above 100 µM; in the experiment with U251 CNS, above 100 µM; in the experiment with UACC-257 melanoma it was 76.4 µM.

For the molecule `O=C(CC(=O)N1N=C(c2ccccc2)C(N=Nc2ccccc2Cl)C1=O)Nc1ccccc1Cl` (centres undefined), the TGI with EKVX NSCLC, in the experiment with IGROV1 ovarian, in the experiment with M14 melanoma, in the experiment on MOLT-4 leukemia, in the experiment with NCI-H460 lung and in the experiment on SK-MEL-2 melanoma was above 100 µM each time. The TGI in the experiment with SNB-75 CNS is 49.9 µM; in the experiment with U251 CNS it was above 100 µM; in the experiment with UACC-257 melanoma, above 100 µM.

Turning to `CC(C)=Cc1cc(C(=O)NCCNC(=O)c2cc(C=C(C)C)nc(NC#N)n2)nc(NC#N)n1`, the TGI with A498 renal, with EKVX NSCLC, in the experiment on IGROV1 ovarian, in the experiment on M14 melanoma, in the experiment on MOLT-4 leukemia and in the experiment on NCI-H460 lung was above 100 µM in each case. Further, the TGI in the experiment with SNB-75 CNS, in the experiment on U251 CNS and in the experiment on UACC-257 melanoma was above 100 µM each time.

Take `COc1ccc2c(c1)CC1N(C)CCC13CCCCC23` (centres undefined): the TGI in the experiment on EKVX NSCLC, in the experiment on IGROV1 ovarian, in the experiment with M14 melanoma, in the experiment with MOLT-4 leukemia, with NCI-H460 lung and in the experiment on SK-MEL-2 melanoma was above 100 µM throughout. Further, the TGI in the experiment on SNB-75 CNS, in the experiment with U251 CNS and in the experiment on UACC-257 melanoma was above 100 µM throughout.

As to `CC(O)c1ccc(C(O)/C(=N\NC(=O)c2ccncc2)c2nc3ccc([N+](=O)[O-])cc3[nH]c2=O)cc1` (centres undefined), the TGI with IGROV1 ovarian, in the experiment with M14 melanoma, in the experiment on MOLT-4 leukemia, in the experiment with NCI-H460 lung, with SNB-75 CNS and in the experiment with U251 CNS was above 100 µM in each case. The TGI in the experiment with UACC-257 melanoma is above 100 µM.

As for `COC(=O)[C@H](C)[C@@H]1CC[C@](C)(CCC2=C(C)CCCC2(C)C)OO1`, the TGI in the experiment with EKVX NSCLC, in the experiment on IGROV1 ovarian, in the experiment with M14 melanoma, with MOLT-4 leukemia, in the experiment with NCI-H460 lung and with SK-MEL-2 melanoma was above 25 µM throughout. The TGI with SNB-75 CNS, in the experiment on U251 CNS and in the experiment on UACC-257 melanoma was above 25 µM in each case.

On to `O=[P+](O)c1cccnc1`, for which the TGI in the experiment on A498 renal, in the experiment with EKVX NSCLC, with IGROV1 ovarian, in the experiment on M14 melanoma, with MOLT-4 leukemia and in the experiment on NCI-H460 lung was above 100 µM each time. Besides, the TGI in the experiment with SNB-75 CNS, in the experiment on U251 CNS and in the experiment with UACC-257 melanoma was above 100 µM throughout.

`C1=CC(=NN=P(c2ccccc2)(c2ccccc2)c2ccccc2)C=C1`: the TGI in the experiment on EKVX NSCLC, in the experiment on IGROV1 ovarian, with M14 melanoma, with MOLT-4 leukemia, in the experiment with NCI-H460 lung and with SK-MEL-2 melanoma was above 100 µM each time. The TGI in the experiment with SNB-75 CNS and in the experiment with UACC-257 melanoma was above 100 µM throughout.

As for `Cc1cc(C)c(C(=O)/C(=C/c2ccccc2)c2ccccc2)c(C)c1`, the TGI with EKVX NSCLC is above 100 µM; in the experiment with IGROV1 ovarian it was above 100 µM; with M14 melanoma, above 100 µM; in the experiment on MOLT-4 leukemia, above 100 µM; in the experiment with NCI-H460 lung it was above 100 µM; in the experiment on SK-MEL-2 melanoma it was 43.4 µM. In addition, the TGI in the experiment with SNB-75 CNS, with U251 CNS and with UACC-257 melanoma was above 100 µM throughout.

Take `Cc1ccc(S(=O)(=O)OC2CSSCC2OS(=O)(=O)c2ccc(C)cc2)cc1` (centres undefined): the TGI in the experiment with EKVX NSCLC came out at 50 µM; in the experiment with IGROV1 ovarian, 32.9 µM; in the experiment on M14 melanoma, 25.1 µM; in the experiment on MOLT-4 leukemia it was 7.61 µM; in the experiment on NCI-H460 lung, 31.8 µM; in the experiment with SK-MEL-2 melanoma, 29.1 µM. The figures for the TGI in the experiment with SNB-75 CNS, in the experiment on U251 CNS and in the experiment on UACC-257 melanoma were 28.1 µM, 27.2 µM and 22.8 µM, respectively.

As to `CCOC(=O)Nc1cc(-c2ccc(C)c(NS(C)(=O)=O)c2)nn2c(C)nnc12`, the GI50 in the experiment on A498 renal is 1590 nM; with IGROV1 ovarian, 1570 nM; in the experiment on M14 melanoma, 2100 nM; with MOLT-4 leukemia it was 2450 nM; in the experiment on NCI-H460 lung it was 2040 nM; in the experiment with SNB-75 CNS it was 477 nM. In the experiment on UACC-257 melanoma, the GI50 was 1110 nM. Besides, the TGI in the experiment with A498 renal is 5.88 µM; in the experiment on IGROV1 ovarian it was 8.17 µM; in the experiment with M14 melanoma, above 100 µM; in the experiment with MOLT-4 leukemia, 9.94 µM; in the experiment with NCI-H460 lung, above 100 µM; in the experiment with SNB-75 CNS, 9.13 µM. Further, the TGI in the experiment with UACC-257 melanoma was above 100 µM.

On to `Cc1cc2c(C)nn(Cc3ccccc3Cl)c2c(C#N)c1C`, for which the TGI with EKVX NSCLC, in the experiment with IGROV1 ovarian, in the experiment with MOLT-4 leukemia, in the experiment with NCI-H460 lung, in the experiment on SK-MEL-2 melanoma and in the experiment on SNB-75 CNS was above 100 µM each time. The TGI with U251 CNS and with UACC-257 melanoma was above 100 µM in each case.

With `COc1ccc(NC(=O)C2=CC(=O)c3ccc(O)cc3C2=O)c(OC)c1`, the TGI in the experiment with A498 renal, in the experiment with EKVX NSCLC, with IGROV1 ovarian, in the experiment with M14 melanoma, in the experiment on MOLT-4 leukemia and with NCI-H460 lung was above 100 µM each time. For the same molecule, the TGI with SNB-75 CNS, in the experiment on U251 CNS and in the experiment with UACC-257 melanoma was above 100 µM in each case.

For `O=C(O)CCCc1cc2c(s1)-c1cccc3cccc-2c13`, the TGI in the experiment on IGROV1 ovarian is above 100 µM; in the experiment on M14 melanoma, above 100 µM; in the experiment with MOLT-4 leukemia, 60.8 µM; with NCI-H460 lung, above 100 µM; in the experiment on SK-MEL-2 melanoma, 46.3 µM; in the experiment with SNB-75 CNS, above 100 µM. In addition, the TGI in the experiment with U251 CNS stood at 53.8 µM; in the experiment on UACC-257 melanoma it was 53.9 µM.

With `COc1cc(=O)oc(/C=C/CO)c1C`, the TGI in the experiment on A498 renal, with EKVX NSCLC, in the experiment on IGROV1 ovarian, with M14 melanoma, in the experiment with MOLT-4 leukemia and in the experiment with SNB-75 CNS was above 100 µM in each case. The TGI with U251 CNS and in the experiment on UACC-257 melanoma was above 100 µM in each case.
